BindingDB's records for patent US20230270751 (Reviral, 2023)

Target: T1, Nucleoprotein (Human respiratory syncytial virus A (strain A2), UniProt P03418)
T1 sequence (P03418 whole entry): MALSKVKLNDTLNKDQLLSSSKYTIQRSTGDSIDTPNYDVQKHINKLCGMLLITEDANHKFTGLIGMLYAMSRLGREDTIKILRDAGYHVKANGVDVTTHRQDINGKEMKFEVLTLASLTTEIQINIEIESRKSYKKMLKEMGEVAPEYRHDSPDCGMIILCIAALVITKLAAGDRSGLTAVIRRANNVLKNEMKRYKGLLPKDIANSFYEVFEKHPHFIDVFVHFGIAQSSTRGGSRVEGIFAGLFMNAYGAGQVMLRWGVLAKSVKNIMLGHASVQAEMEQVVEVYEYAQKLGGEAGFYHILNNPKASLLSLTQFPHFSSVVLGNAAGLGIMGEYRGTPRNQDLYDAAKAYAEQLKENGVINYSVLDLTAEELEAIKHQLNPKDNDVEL
Experiment: Not found
Excerpt: Not found

| Compound | EC50 |
| --- | --- |
| O=C(N[C@H]1N=C(c2ccccc2)c2cccc(F)c2NC1=O)c1c(-c2ccccc2F)nn2c1OCC(C1CC1)C2 (stereo not given in full) [US20230270751, Example 13] | 28 nM |
| CN(C(=O)OC(C)(C)C)C1COc2c(C(=O)N[C@H]3N=C(c4ccccc4)c4cccc(F)c4NC3=O)c(-c3ccccc3F)nn2C1 (stereo not given in full) [US20230270751, Example 107] | 93 nM |
| O=C(N[C@H]1N=C(c2ccccc2)c2cccc(F)c2NC1=O)c1c(-c2ccccc2F)nn2c1OCC(CN1CCOCC1)C2 (stereo not given in full) [US20230270751, Example 173] | 91 nM |
| O=C(N[C@H]1N=C(c2ccccc2)c2cccc(F)c2NC1=O)c1c(-c2ccccc2F)nn2c1OCC(CN1CCCC1)C2 (stereo not given in full) [US20230270751, Example 182] | 78 nM |
| O=C(N[C@H]1N=C(c2ccccc2)c2cccc(F)c2NC1=O)c1c(-c2c(F)cccc2F)nn2c1OCCC2 [US20230270751, Example 196] | 25 nM |
